The subject of the first test is F21T oligonucleotide (human telomeric intramolecular quadruplex). The test can be described thus: FRET melting analysis, G-quadruplex stabilization. The note with it: compounds at 1-10 μM, 0.2 μM F21T, 10 mM KCl, 90 mM LiCl, pH 7.2. It counts as binding. As for the experimental part: Ordinate: melting temperature (Tm) in Celsius scale (° C.). Abscissa (from left to right): (i) Compounds 1a at 10 μM, 5 μM, 2.5 μM, 1 μM; (ii) Compounds 1b at 10 μM, 5 μM, 2.5 μM, 1 μM; (iii) Compounds 1c at 10 μM, 5 μM, 2.5 μM, 1 μM.
FRET melting experiments were conducted using the F21T oligonucleotide.
Consider `CSc1ccc(-c2cc(-c3ccc(-n4cc(CCCN5CCN(C)CC5)nn4)cc3)nc(-c3ccc(-n4cc(CCCN5CCN(C)CC5)nn4)cc3)c2)cc1` [Compound 1b], for which the “stabilization of the F21T quadruplex (melting temperature Tm)” value is on record as “stabilize an intramolecular quadruplex”.
Still for that read-out and setting: then `CSc1ccc(-c2cc(-c3ccc(-n4cc(CCN5CCN(C)CC5)nn4)cc3)nc(-c3ccc(-n4cc(CCN5CCN(C)CC5)nn4)cc3)c2)cc1` [Compound 1c], with “stabilize an intramolecular quadruplex”; and `CSc1ccc(-c2cc(-c3ccc(-n4cc(CCCN5CCCC5)nn4)cc3)nc(-c3ccc(-n4cc(CCCN5CCCC5)nn4)cc3)c2)cc1` [Compound 1a], with “stabilize an intramolecular quadruplex”.

A further test deals with U2OS expressing Galectin3-mCherry cells. The test can be described thus: Lysosomal membrane permeabilization (LMP), quantification of Galectin 3 puncta. In kind it is cell-based, human. The note with it: compound alone, without chloroquine, 24 h; 2 μM of 1a, 1 μM of 1b, 1 μM of 1c. As for the experimental part: The data are presented as the mean percentage of 15 values from 5 randomly chosen area in each of the three independent experiments. Ordinate: Percentage of cells with Galectin3 puncta.
Lysosomal membrane damage was assessed thanks to U2OS expressing Galectin3-mCherry cells. […] Cells were then washed with PBS, fixed with 4% (v/v) paraformaldehyde for 10 min at room temperature and then nucleic were counterstained for 15 min with Hoechst 33258. Image acquisition was made with a Leica DMI8 epifluorescence microscope, with a ×20 objective (NA 0.40) equipped with a digital CMOS camera (Hamamatsu photonics) and filter bloc for detection of phase contrast and blue (exc: 325-375 nm/em: 435-485 nm) and red (exc: 541-551 nm/em: 565-605 nm) fluorescence. Each image was collected with identical exposure times and scaled equally. Five images were acquired for each condition and then analyzed thanks to ImageJ software (Schneider et al., 2012, 9(7): 671-675) in order to count manually the number of cells, and automatically the number of Galectin3 punctae within each cell by using the “Find Maxima” tool.
As for `CSc1ccc(-c2cc(-c3ccc(-n4cc(CCCN5CCN(C)CC5)nn4)cc3)nc(-c3ccc(-n4cc(CCCN5CCN(C)CC5)nn4)cc3)c2)cc1` [Compound 1b], the “percentage of cells with Gal3 puncta” value is 31%.
Same read-out and setting: the result for `CSc1ccc(-c2cc(-c3ccc(-n4cc(CCN5CCN(C)CC5)nn4)cc3)nc(-c3ccc(-n4cc(CCN5CCN(C)CC5)nn4)cc3)c2)cc1` [Compound 1c] reads 25%.
Take `CSc1ccc(-c2cc(-c3ccc(-n4cc(CCCN5CCCC5)nn4)cc3)nc(-c3ccc(-n4cc(CCCN5CCCC5)nn4)cc3)c2)cc1` [Compound 1a]: the “percentage of cells with Gal3 puncta” value amounted to 26%.

Staying with this test, now noted: with 25 μM chloroquine, 24 h; 2 μM of 1a, 1 μM of 1b, 1 μM of 1c.
For the compound `CSc1ccc(-c2cc(-c3ccc(-n4cc(CCCN5CCN(C)CC5)nn4)cc3)nc(-c3ccc(-n4cc(CCCN5CCN(C)CC5)nn4)cc3)c2)cc1` [Compound 1b], the “percentage of Gal3 puncta positive cells” value worked out at 56%.
The same measure, in the same setting: then `CSc1ccc(-c2cc(-c3ccc(-n4cc(CCN5CCN(C)CC5)nn4)cc3)nc(-c3ccc(-n4cc(CCN5CCN(C)CC5)nn4)cc3)c2)cc1` [Compound 1c], with 45%.
Same read-out and setting: the result for `CSc1ccc(-c2cc(-c3ccc(-n4cc(CCCN5CCCC5)nn4)cc3)nc(-c3ccc(-n4cc(CCCN5CCCC5)nn4)cc3)c2)cc1` [Compound 1a] reads 57%.

For another test, the system named is HeLa cells. Nature of the test: MTT cell viability assay. In kind it is cell-based, human. The note with it: 24 h treatment, mean of 4 independent experiments in quadruplicate. As for the experimental part:
HeLa cells were treated with 1 μM to 10 μM concentrations of compounds 20A (▾), 1a (grey ▴), 1b (●) and 1c (▪) for 24h. Cell viability was assessed by the MMT assay. Plotted are mean±SD of one representative experiment each performed in quadruplicate. IC50 is scored for each compound from 4 independent experiments performed in quadruplicate. Ordinate: Percentage of HeLa cell viability. Abscissa: Concentrations of compounds 20A, 1a, 1b and 1c.
MTT assay was used to monitor cell viability in HeLa cells subjected to different treatments. Briefly, cells were seeded in a 96-well plate (4×10^3 cells/well). After 24 h of treatment of cells with drug, MTT was added to each well to a final concentration of 0.5 mg/ml during 3 h at 37° C. The supernatant of cells was then removed, and 100 μl of DMSO was added per well. The absorbance in each well was measured at 570 nm and 630 nm using a Flexstation 3 microplate reader (Molecular Devices). 4 independent experiences were conducered, each performed in quadruplicate. To determine the IC50 of compounds 20A, 1a, 1b and 1c, a non-linear regression curve was fit using GraphPad Prism software.
Compound `CSc1ccc(-c2cc(-c3ccc(-n4cc(CCCN5CCN(C)CC5)nn4)cc3)nc(-c3ccc(-n4cc(CCCN5CCN(C)CC5)nn4)cc3)c2)cc1` [Compound 1b] displayed an IC50 of 3.15 µM.
The same measure, in the same setting: then `CSc1ccc(-c2cc(-c3ccc(-n4cc(CCN5CCN(C)CC5)nn4)cc3)nc(-c3ccc(-n4cc(CCN5CCN(C)CC5)nn4)cc3)c2)cc1` [Compound 1c], with 3.62 µM; and `CSc1ccc(-c2cc(-c3ccc(-n4cc(CCCN5CCCC5)nn4)cc3)nc(-c3ccc(-n4cc(CCCN5CCCC5)nn4)cc3)c2)cc1` [Compound 1a], with 4.34 µM.

The values above are taken from patent US20230212146A1, “TRIARYLPYRIDINE COMPOUNDS AND USE THEREOF FOR TREATING CANCER” (INSTITUT NATIONAL DE LA SANTEET DE LA RECHERCHE …, priority 2020, published 2023).
